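All cell lines were grown in 96-well plates and treated with compound for 48 hours. GI50 is the concentration that inhibits growth by half. At the TGI there is no net growth.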
Assays:
Test in all cases: DTP human tumour cell line panel, 48 h
[1] = test system: NCI-H226 lung
[2] = test system: HCT-116 colon
[3] = test system: NCI-H460 lung
[4] = test system: ACHN renal
[5] = test system: NCI-H23 lung
[6] = test system: A498 renal
[7] = test system: HOP-92 NSCLC
[8] = test system: OVCAR-5 ovarian
[9] = test system: RPMI-8226 leukemia
[10] = test system: SNB-75 CNS

## C=C1C(=O)O[C@H]2[C@H]1CC/C(COC(=O)c1ccc(C(=O)O)s1)=C\CC[C@@]1(C)O[C@@H]21
[1]
  GI50: 12.2 µM
  TGI: 30.5 µM
[2]
  GI50: 0.715 µM
  TGI: 2.03 µM
[3]
  GI50: 3.33 µM
  TGI: 10.8 µM
[4]
  GI50: 1.63 µM
  TGI: 3.02 µM
[5]
  GI50: 3.34 µM
  TGI: 11.8 µM
[6]
  GI50: 7.5 µM
  TGI: 20.3 µM
[7]
  GI50: 1.61 µM
  TGI: 3.45 µM
[8]
  GI50: 3.05 µM
  TGI: 10.1 µM
[9]
  GI50: 1970 nM
  TGI: 5.98 µM

## O=C1c2cccc3cc([N+](=O)[O-])cc(c23)C(=O)N1CCCN1CCN(CCCN2C(=O)c3cccc4cc([N+](=O)[O-])cc(c34)C2=O)CC1
[1]
  TGI: 1.37 µM
[2]
  TGI: 1.34 µM
[3]
  TGI: > 100 µM
[4]
  TGI: 4.28 µM
[5]
  TGI: 7.64 µM
[6]
  TGI: 3.87 µM
[7]
  TGI: 5.2 µM
[8]
  TGI: > 100 µM
[9]
  TGI: > 100 µM
[10]
  TGI: 9.54 µM

## COc1ccc(/C=[N+](\[O-])[C@H](COCc2ccccc2)c2ccccc2)cc1
[2]
  TGI: > 100 µM
[3]
  TGI: > 100 µM
[4]
  TGI: > 100 µM
[5]
  TGI: > 100 µM
[6]
  TGI: > 100 µM
[7]
  TGI: > 100 µM
[8]
  TGI: > 100 µM
[9]
  TGI: > 100 µM
[10]
  TGI: > 100 µM

## O=C1NC(=O)C(c2ccccc2Cl)=C1Nc1cccc(O)c1
[1]
  GI50: 6.19 µM
  TGI: > 25 µM
[2]
  GI50: 7.51 µM
  TGI: > 25 µM
[3]
  GI50: 7.12 µM
  TGI: > 25 µM
[4]
  GI50: > 25 µM
  TGI: > 25 µM
[5]
  GI50: 10.5 µM
  TGI: > 25 µM
[6]
  GI50: 6.49 µM
  TGI: > 25 µM
[7]
  GI50: 8.53 µM
  TGI: > 25 µM
[8]
  GI50: > 20.5 µM
  TGI: > 25 µM
[9]
  GI50: 21400 nM
  TGI: > 25 µM
[10]
  GI50: 6.76 µM
  TGI: > 20.2 µM

## CC1=CC[C@@H]2C(C)(C)[C@@H](O)CC[C@@]2(C)[C@@H]1COc1ccc2ccc(=O)oc2c1
[1]
  GI50: 4.28 µM
  TGI: 19.8 µM
[2]
  GI50: 4.6 µM
  TGI: 18.7 µM
[3]
  GI50: 7.68 µM
  TGI: 25.7 µM
[4]
  GI50: 5.11 µM
  TGI: 19.6 µM
[5]
  GI50: 10.8 µM
  TGI: 33 µM
[6]
  GI50: 0.905 µM
  TGI: 19.9 µM
[7]
  GI50: 3.83 µM
  TGI: 18.2 µM
[8]
  GI50: 16.6 µM
  TGI: 42.3 µM

## Cc1ccc(C)c(NC(=O)/C(=N\NC(N)=S)C(C#N)c2ccccc2)c1 (configuration not stated)
[1]
  TGI: > 100 µM
[2]
  TGI: > 100 µM
[3]
  TGI: > 100 µM
[4]
  TGI: > 100 µM
[5]
  TGI: > 100 µM
[6]
  TGI: > 100 µM
[7]
  TGI: > 100 µM
[8]
  TGI: > 100 µM
[9]
  TGI: > 100 µM
[10]
  TGI: > 100 µM

## O=C(O)c1nnsc1COCc1ccccc1
[2]
  TGI: > 100 µM
[3]
  TGI: > 100 µM
[4]
  TGI: > 100 µM
[5]
  TGI: > 100 µM
[6]
  TGI: > 100 µM
[7]
  TGI: > 100 µM
[8]
  TGI: > 100 µM
[9]
  TGI: > 100 µM
[10]
  TGI: > 100 µM

## Cc1ccc(S(=O)(=O)NCCN2c3nc4ccccc4cc3Sc3cc4ccccc4nc32)cc1
[1]
  GI50: 64.2 µM
  TGI: > 100 µM
[2]
  GI50: 7.11 µM
  TGI: > 100 µM
[3]
  GI50: > 100 µM
  TGI: > 100 µM
[4]
  GI50: 8.42 µM
  TGI: > 100 µM
[5]
  GI50: 13 µM
  TGI: > 100 µM
[6]
  GI50: 24.4 µM
  TGI: > 84.9 µM
[7]
  GI50: 2.19 µM
  TGI: 13.3 µM
[8]
  GI50: > 100 µM
  TGI: > 100 µM
[10]
  GI50: 1.54 µM
  TGI: 7.84 µM

## CCCN(CCC)c1c([N+](=O)[O-])cc(S(N)(=O)=O)cc1[N+](=O)[O-]
[1]
  TGI: 42.7 µM
[2]
  TGI: 33.8 µM
[3]
  TGI: 29.4 µM
[4]
  TGI: 31.8 µM
[5]
  TGI: 32.3 µM
[8]
  TGI: 37.9 µM
[9]
  TGI: 76.4 µM
[10]
  TGI: 32.4 µM

## CC(C)(C)C([O-])=C1C(=O)c2ccccc2C1=O.CC(C)(C)C([O-])=C1C(=O)c2ccccc2C1=O.CC[O-].CC[O-].[Ti+4]
[1]
  GI50: 56.7 µM
  TGI: > 100 µM
[2]
  GI50: 37.7 µM
  TGI: > 100 µM
[3]
  GI50: 32.1 µM
  TGI: > 100 µM
[4]
  GI50: 35.2 µM
  TGI: > 100 µM
[5]
  GI50: 31.8 µM
  TGI: > 100 µM
[7]
  GI50: 26.9 µM
  TGI: > 100 µM
[8]
  GI50: 34.8 µM
  TGI: > 100 µM
[10]
  GI50: 42.3 µM
  TGI: > 100 µM

## Cn1cc(NC(=O)c2cc(NC(=O)CCCCCC(=O)Nc3cc(C(=O)Nc4cc(C(=O)NCCC(=N)N)n(C)c4)n(C)c3)cn2C)cc1C(=O)NCCC(=N)N
[2]
  TGI: > 100 µM
[3]
  TGI: > 100 µM
[4]
  TGI: > 100 µM
[5]
  TGI: > 100 µM
[6]
  TGI: > 100 µM
[7]
  TGI: > 100 µM
[8]
  TGI: > 100 µM
[10]
  TGI: > 100 µM

## Cn1nnnc1[N-]Cc1ccccc1.[Au+].c1ccc([PH+](c2ccccc2)c2ccccc2)cc1
[1]
  GI50: 8.49 µM
  TGI: 29.7 µM
[2]
  GI50: 3.88 µM
  TGI: 13 µM
[3]
  GI50: 19.1 µM
  TGI: 65.7 µM
[4]
  GI50: 4.29 µM
  TGI: 10.6 µM
[5]
  GI50: 3.35 µM
  TGI: 10.4 µM
[7]
  GI50: 2.44 µM
  TGI: 4.68 µM
[8]
  GI50: 14.8 µM
  TGI: 28.4 µM
[9]
  GI50: 1230 nM
  TGI: 4.37 µM
[10]
  GI50: 7.92 µM
  TGI: 20.5 µM

## O=C(Nc1ccc(Br)cc1)c1cc(Br)cc(Br)c1O
[1]
  GI50: 3.45 µM
  TGI: 12.3 µM
[2]
  GI50: 2.41 µM
  TGI: 8.31 µM
[3]
  GI50: 2.6 µM
  TGI: 6.86 µM
[4]
  GI50: 2.31 µM
  TGI: 6.66 µM
[5]
  GI50: 2.18 µM
  TGI: 6.8 µM
[6]
  GI50: 1.82 µM
  TGI: 4.37 µM
[8]
  GI50: 2.7 µM
  TGI: 19.6 µM
[9]
  GI50: 1670 nM
  TGI: 6.26 µM
[10]
  GI50: 2.16 µM
  TGI: 7.11 µM

## COc1cc2ccc3c4cc(OC)c(OCc5ccccc5)cc4cnc3c2cc1OC
[3]
  TGI: > 100 µM
[4]
  TGI: > 100 µM
[5]
  TGI: > 100 µM
[6]
  TGI: > 100 µM
[8]
  TGI: > 100 µM
[9]
  TGI: > 100 µM
[10]
  TGI: > 100 µM

## c1ccc2c(NCCCCCCCCNc3c4ccccc4nc4ccccc34)c3ccccc3nc2c1
[1]
  TGI: 2.59 µM
[2]
  TGI: 1.26 µM
[3]
  TGI: 1.33 µM
[4]
  TGI: 1.82 µM
[5]
  TGI: 1.73 µM
[6]
  TGI: 2.68 µM
[7]
  TGI: 2.87 µM
[8]
  TGI: 2.2 µM
[10]
  TGI: 2.62 µM

## CCCCCCCCCCCC(=O)C1=C(O)C(O)CCC1=O (configuration not stated)
[1]
  TGI: 70.3 µM
[2]
  TGI: 38.5 µM
[3]
  TGI: 44.4 µM
[4]
  TGI: 56.9 µM
[5]
  TGI: 20 µM
[6]
  TGI: 43.2 µM
[7]
  TGI: 48.3 µM
[8]
  TGI: 80.2 µM
[10]
  TGI: 67.7 µM

## NC(N)=N/N=C/c1c(-c2cc(Cl)sc2Cl)nc2n1CCS2
[1]
  GI50: 8.31 µM
  TGI: 16.8 µM
[3]
  GI50: 25.5 µM
  TGI: > 50 µM
[4]
  GI50: 8.31 µM
  TGI: 15.1 µM
[5]
  GI50: 8.77 µM
  TGI: 16.7 µM
[6]
  GI50: 8.9 µM
  TGI: 16.6 µM
[8]
  GI50: 7.87 µM
  TGI: 14.7 µM
[9]
  GI50: 9340 nM
  TGI: 19.4 µM

Reference: PubChem BioAssay (NCI)
